Paper PMC5597121, “The human bitter taste receptor T2R38 is broadly tuned for bacterial compounds” (PLoS ONE, 2017)
Positions count from the first letter of the chain named. Several values for one entry are separate records, joined by “and”; a condition that tells them apart may be missing. Equal entries are not always repeated. Where two headings read alike, the source gives them in different places.

Legend:
T2R38 AVI = biological target: T1, T2R38 AVI (Homo sapiens, UniProt P59533, A262V); assay: Single cell calcium imaging, control: cells transfected with nonfunctional allele (AVI) of T2R38; type: cell-based; conditions: T2R38 AVI, individual values of experiments 1-5
T1 construct: leader: first 45 amino acids of rat somatostatin receptor subtype 3 (SSTR3) (N); expressed in transfected cells; host or cells: Peakrapid cells (HEK293 derivative, ATCC CRL-2828) stably expressing Galpha16gustducin44, co-transfected with human RTP4
T1 sequence (P59533 1-333 A262V): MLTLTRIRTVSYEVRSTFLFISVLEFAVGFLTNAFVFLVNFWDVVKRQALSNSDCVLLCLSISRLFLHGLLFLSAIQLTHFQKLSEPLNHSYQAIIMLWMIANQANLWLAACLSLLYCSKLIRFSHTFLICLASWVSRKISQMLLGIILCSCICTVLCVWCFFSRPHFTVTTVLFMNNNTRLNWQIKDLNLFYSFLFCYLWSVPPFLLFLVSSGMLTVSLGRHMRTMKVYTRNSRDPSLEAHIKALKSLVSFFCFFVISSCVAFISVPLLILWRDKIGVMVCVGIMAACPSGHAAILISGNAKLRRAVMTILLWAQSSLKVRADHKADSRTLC
Method: (§1) The coding sequences of either the functional (PAV, GenBank accession number AY258597.1) and non-functional (AVI, GenBank accession number AF494231.1) were amplified from human genomic DNA by polymerase chain reaction.
(§2) The Peakrapid cell line expressing stably a chimeric Gα16gustducin44 G protein [21] was used. 40 000 cells were seeded in each well of a black/clear poly-D-lysine cellware pre-coated 96-well plate (Biocoat®, Becton-Dickinson, Erembodegem, Belgium) and transiently transfected with 50 ng of plasmid DNA containing the receptor sequence or not (empty vector) and with 50 ng of chaperone protein RTP4 per well. Forty hours after transfection, cells were incubated with the calcium-sensitive dye Fluo4 (Life Technologies, Oregon, USA) solubilized at 10 μg/ml in a buffer containing EMEM (150 mM NaCl, 5 mM KCl, 2 mM CaCl2, 1.2 mM MgCl2, 10 mM glucose), 10 mM HEPES, 0.01% (v/v) Pluronic F127, 0.1% (w/v) bovine serum albumin. After 1 h incubation at 37°C, cells were rinsed twice with the same buffer without Fluo4 and left in 50 μl buffer (prior ligand injection). Measurement were performed on a platform based on a motorized Axiobserver Z1 fluorescence microscope piloted by a Axiovision software (Zeiss, Jena, Germany) as described previously. For each selected well, images were taken 1 per second, during 30 seconds. 50 μl of the buffer containing the ligand twice concentrated was injected on the 2nd second of the time lapse record.
(§3) After time lapse record, the number of responding cells in each injected well was determined using ImageJ 1.34 (Rasband, W.S., ImageJ, National Institutes of Health, Bethesda, Maryland, USA, http://rsb.info.nih.gov/ij/1997-2004), and expressed as the percentage of the surface of a microscope field covered by activated cells with respect to the total surface of the field covered by confluent cells. Automated determination of the surface occupied by responding cells is easier to perform than a cell counting. The resulting percentage of positive surface provided a convenient estimation of the percentage of responding cells, as observed by comparing the percentage of positive surface and percentage of responsive cells determined by direct counting, in the same experiment. In agreement with the literature, the percentage of responding cells was proportional to the agonist concentration. During experiment in each plate, at least 2 wells were tested with phenylthiocarbamide (PTC) at 0.1 mM, which is one of the best characterized agonist of T2R38 in the literature. The activation of T2R38 by PTC allows normalization of the result of other tested molecules. The results were thus expressed as the percentage of PTC activation. In scaling calcium imaging assays using this latter receptor, concentration-responses curves were performed and data were fitted to a four parameter logistic equation: y=min+ (max− min)/1+10 ^(logEC50−x)nH . Min and max are the minimum and the maximum values of the percentage of cell-activated surface respectively, y is the percentage of cell-activated surface at the x concentration and nH is the Hill coefficient.

T2R38 = biological target: T2, T2R38 (Homo sapiens, UniProt P59533, A49P/I296V); assay: Single cell calcium imaging, Peakrapid cells (Gα16gustducin44) transiently transfected with T2R38; type: cell-based; conditions: for response of T2R38 PAV transfected cells (S7_fig raw data): individual values of experiments 1-5; for Emax: read-out: Emax (% of positive control)
T2 construct: leader: first 45 amino acids of rat somatostatin receptor subtype 3 (SSTR3) (N); expressed in transfected cells; host or cells: Peakrapid cells (HEK293 derivative, ATCC CRL-2828) stably expressing Galpha16gustducin44, co-transfected with human RTP4
T2 sequence (P59533 1-333 A49P/I296V): T1 sequence (P59533 1-333 A262V) with A49P, V262A, I296V
Text: as §1
These coding sequences were cloned in a pEFIB backbone vector in translational fusion with the coding sequence of a leader sequence corresponding to the 45 first amino acids of the rat somatostatin receptor subtype 3 [20]. The constructs were verified by sequencing. The coding sequence of RTP4 (Genbank accession number AY562238.1) was amplified from human spleen cDNA and cloned a pCI backbone vector.
The Gα16gustducin44 sequence was generated by swapping the last 132 nucleotides of the G α16 with the corresponding terminal sequence of the Gα-gustducin [21] and was cloned in a pIRES-Puro plasmid. This vector was transfected in the Peakrapid cell line (ATCC reference: CRL-2828™; purchased from LGC Standards SARL, Molsheim, FRANCE), HEK293 cell line derivative, cultured in EMEM culture medium (reference BE12-136F; Lonza, Vervier, BELGIUM) supplemented with 10% of foetal bovine serum (Sigma-Aldrich, Bornem, Belgium) and 1 μg/ml of Puromycin to allow the selection of recombinant cell populations. Cell clones expressing the Gα16gustducin44 were selected and the clone presenting the best functional response of T2R38 to phenylthicarbamide was used for the study (see below).
as §2
as §3, with “In scaling calcium imaging assays using this latter receptor, concentration-responses curves were performed and data were fitted to a four parameter logistic equation: y=min+ (max− min)/1+10 ^(logEC50−x)nH . Min and max are the minimum and the maximum values of the percentage of cell-activated surface respectively, y is the percentage of cell-activated surface at the x concentration and nH is the Hill coefficient.” left out

[1] = test system: mock transfected cells (empty vector); assay: Single cell calcium imaging, control: mock transfected (empty vector) Peakrapid cells; type: cell-based, human
Method: as §2, §3

[2] = 2 butanone 0.0003, log10[ ] -3.52288
[3] = 2 butanone 0.005, log10[ ] -2.30
[4] = concentration-response curve, read-out: EC50
[5] = given in the concentration-response curve
[6] = percentage of the response elicited by 0.1 mM PTC
[7] = 2 méthyl propanal 0.000398107, log10[ ] -3.4
[8] = 2 méthyl propanal 0.00251189, log10[ ] -2.6
[9] = 2 méthyl propanal 0.0158489, log10[ ] -1.8

CCC(C)=O [2-butanone]
response of T2R38 AVI transfected cells (S7_fig raw data) (T2R38 AVI): 0.268% and 0.426% and 0.699% and 0.605% and 0.163% and 0.0184% and 0.394% and 1%
agonist activity on T2R38 (in words) (T2R38): able to specifically trigger this receptor
percentage of surface covered by activated cells (T2R38; [2]): 0.29% and 0.34% and 0.44% and 0.21% and 0.00% and 0.15%
percentage of surface covered by activated cells (T2R38; 2 butanone 0.001, log10[ ] -3): 0.13% and 1.98% and 3.16% and 3.22% and 0.15% and 0.22%
percentage of surface covered by activated cells (T2R38; [3]): 0.54% and 0.83% and 7.88% and 6.11% and 2.08% and 3.12%
response of T2R38 PAV transfected cells (S7_fig raw data) (T2R38): 17% and 13% and 2.7% and 11% and 15% and 12% and 7% and 6%
EC50 (T2R38; [4]): 11 mM
logEC50 (T2R38; [5]): -1.94
Emax (% of positive control) (T2R38; [6]): 48 % of positive control
percentage of surface covered by activated cells [1, 2]: 0.39% and 0.10% and 0.28% and 0.31% and 0.23% and 0.40%
percentage of surface covered by activated cells ([1]; 2 butanone 0.001, log10[ ] -3): 0.15% and 0.21% and 0.35% and 0.12% and 1.02% and 0.24%
percentage of surface covered by activated cells [1, 3]: 0.20% and 0.26% and 0.34% and 0.21% and 0.24% and 0.71%
percentage of surface covered by activated cells ([1]; 2 butanone 0.015, log10[ ] -1.82): 0.00% and 0.0352% and 0.31% and 0.18% and 0.33% and 0.26%
percentage of surface covered by activated cells ([1]; 2 butanone 0.03, log10[ ] -1.52): 0.0659% and 0.02% and 0.27% and 0.40% and 0.08% and 0.25%
percentage of surface covered by activated cells ([1]; 2 butanone 0.08, log10[ ] -1.09691): 0.25% and 0.75% and 3.48% and 1.23% and 0.22% and 1.04%

CC(C)C=O [2-methylpropanal]
response of T2R38 AVI transfected cells (S7_fig raw data) (T2R38 AVI; listed as 2 méthyl propanal): 1% (2×) and 2% and 1.41% and 0.831% and 1.15%
agonist activity on T2R38 (in words) (T2R38): able to specifically trigger this receptor
percentage of surface covered by activated cells (T2R38; [7]): 0.29% and 0.95% and 0.86% and 0.39% and 1.39% and 0.60% and 1.13% and 1.16%
percentage of surface covered by activated cells (T2R38; [8]): 1.62% and 0.54% and 2.22% and 1.87% and 1.50% and 1.18% and 5.46% and 4.93%
percentage of surface covered by activated cells (T2R38; [9]): 36.19% and 28.82% and 26.57% and 24.12% and 23.76% and 32.56% and 40.19% and 33.93%
response of T2R38 PAV transfected cells (S7_fig raw data) (T2R38; listed as 2 méthyl propanal): 27% and 16% and 28% and 14% (2×) and 8.51%
EC50 (T2R38; [4]): 11 mM
logEC50 (T2R38; [5]): -1.97
Emax (% of positive control) (T2R38; [6]): 163 % of positive control
percentage of surface covered by activated cells [1, 7]: 0.75% and 0.87% and 0.24% and 0.23% and 0.25% and 0.37% and 0.61%
percentage of surface covered by activated cells [1, 8]: 0.28% and 0.65% and 0.25% and 0.23% and 1.49% and 1.18% and 0.31% and 0.37%
percentage of surface covered by activated cells ([1]; 2 méthyl propanal 0.00398107, log10[ ] -2.4): 0.33% and 0.26% and 0.12% and 0.41% and 0.13% and 0.42% and 0.48% and 0.87%
percentage of surface covered by activated cells ([1]; 2 méthyl propanal 0.00630957, log10[ ] -2.2): 0.35% and 0.63% and 0.24% and 0.06% and 0.59% and 0.25% and 0.34% and 0.85%
percentage of surface covered by activated cells ([1]; 2 méthyl propanal 0.01, log10[ ] -2): 0.73% and 0.27% and 0.89% and 1.38% and 0.42% and 1.05% and 1.19% and 0.79%
percentage of surface covered by activated cells [1, 9]: 1.86% and 0.33% and 2.42% and 3.28% and 1.11% and 1.32% and 3.65% and 5.14%

CCCC(C)=O [2-pentanone]
response of T2R38 AVI transfected cells (S7_fig raw data) (T2R38 AVI): 0.427% and 0.477% and 0.476% and 0.193% and 0.0823% and 0.141% and 0.285% and 0.393%
agonist activity on T2R38 (in words) (T2R38): able to specifically trigger this receptor
response of T2R38 PAV transfected cells (S7_fig raw data) (T2R38): 9% and 12% and 15% and 13% (2×) and 7.41% and 5.71% and 14%
EC50 (T2R38; [4]): 4 mM
EC50 (T2R38; given in the concentration-response curve, read-out: logEC50 (converted)): 4.17 mM
Emax (T2R38; [6]): 45%
percentage of surface covered by activated cells ([1]; 2 pentanone 0.0001, log10[ ] -4): 0.19% and 0.34% and 0.32% and 0.16% and 0.35% and 0.41%
percentage of surface covered by activated cells ([1]; 2 pentanone 0.001, log10[ ] -3): 0.04% and 1.06% and 0.17% and 0.14% and 0.64% and 0.06%
percentage of surface covered by activated cells ([1]; 2 pentanone 0.003, log10[ ] -2.52288): 0.03% and 0.41% and 0.31% and 0.06% and 0.22% and 0.074%
percentage of surface covered by activated cells ([1]; 2 pentanone 0.006, log10[ ] -2.22185): 0.27% and 1.25% and 0.19% and 0.29% and 0.62% and 0.33%
percentage of surface covered by activated cells ([1]; 2 pentanone 0.02, log10[ ] -1.69897): 0.18% and 0.24% and 0.54% and 1.13% and 0.15% and 0.52%

CSSC [diméthyldisulfide]
response of T2R38 AVI transfected cells (S7_fig raw data) (T2R38 AVI): 0.145% and 0.026% and 1.18% and 0.463% and 1.36% and 1.27% and 1.33% and 1.1% and 0.0987% and 0.185%
response of T2R38 PAV transfected cells (S7_fig raw data) (T2R38): 18% and 12% (2×) and 2.83% and 2.52% and 3.72% and 7.4% and 9% and 2% and 0.585%

O=C1CCCO1 [γ-butyrolactone]
response of T2R38 AVI transfected cells (S7_fig raw data) (T2R38 AVI; listed as g-butyrolactone): 0.0283% and 0.0479% and 0.129% and 0.148% and 0.16% and 0.208% and 0.188% and 0.394% and 0.0477% and 0.222%
agonist activity on T2R38 (in words) (T2R38): able to specifically trigger this receptor
EC50 (T2R38; EC50, concentration-response curve): 12 mM
response of T2R38 PAV transfected cells (S7_fig raw data) (T2R38; listed as g-butyrolactone): 18% and 20% and 13% and 12% (2×) and 14% and 11% (2×) and 9.52% and 15%
EC50 (T2R38; logEC50, printed in the picture of the concentration-response curve): 12 mM
Emax (T2R38): 33%
